Test results from patent US10328143B2, “Hemagglutinin-binding peptide” (priority 2014, dated 2019).

Columns and labels:
[1] = tested on: highly pathogenic avian influenza virus H5N1 A/whooper swan/Hokkaido/1/08 (5×MLD50); parameters: species or system mice; details: mouse, in vivo
[2] = tested on: influenza virus H5N1 Vac-3; format: cell-based; details: for anti-viral effect compared with zanamivir (Relenza): 0.01, 0.1, 1 μM
[3] = tested on: highly pathogenic avian influenza virus H5N1: A/ws/Hokkaido/1/08 (clade 2.3), A/ws/Mongolia/3/05 (clade 2.2), A/Vietnam/UT3040/04 (clade 1); format: cell-based
[4] = tested on: influenza virus H1N1-pdm 2619; format: cell-based
[5] = tested on: influenza virus H2N2-Adachi strain; format: cell-based

Compound	lethality [1]	treatment effect [1]	anti-viral effect compared with positive control iHA-24 [2]	anti-viral effect compared with zanamivir (Relenza) [2]	effect compared with iHA-24 [3]	effect compared with zanamivir [3]	anti-viral effect compared with zanamivir (Relenza) [4]	anti-viral effect compared with zanamivir (Relenza) [5]	number of plaques [5]	lethal rate [1]
CC(=O)N[C@H]1[C@H]([C@H](O)[C@H](O)CO)OC(C(=O)O)=C[C@@H]1N=C(N)N [zanamivir]	a dead individual is found	no treatment effect is obtained								
Cyclo(Ac-Trp-Ser-MePhe-MeGly-His-Val-His-Tyr-Ser-Val-MePhe-Asn-MeAla-Val-Cys)-amide [iHA-102]			markedly higher than that of the peptide iHA-24	comparable to that of zanamivir						
Cyclo(Ac-Trp-Thr-MeGly-Asp-MePhe-MePhe-Ser-MeSer-His-Tyr-Thr-Val-Pro-Arg-Cys)-amide [iHA-100]			markedly higher than that of the peptide iHA-24	comparable to that of zanamivir	markedly higher than that of iHA-24	on the same level as that of zanamivir	comparable to that of zanamivir	comparable to that of zanamivir	dose-dependently decreased the number of plaques	a decrease in lethal rate is observed
Cyclo(Ac-Trp-Thr-MeGly-Thr-His-Val-Arg-Tyr-Thr-Val-MePhe-Asn-MeAla-Ser-Cys)-amide [iHA-103]			markedly higher than that of the peptide iHA-24	comparable to that of zanamivir						
